Results published in patent US20130039928A1, “COMPOSITIONS AND METHODS FOR REVERSING CORTICOSTEROID RESISTANCE OR TREATING RESPIRATORY INFECTIONS” (priority 2010, published 2013).

How the values were obtained:
Nrf2 [1] = settings: COPD alveolar macrophages
Description: (§1) Human alveolar macrophages were purified from individual BAL samples by centrifugation and seeded onto 6-well tissue culture plates. After incubation for 2 h, non-adherent cells were removed and the adherent cells were incubated with R, S-sulforaphane (5 μM; LKT Laboratories, Inc., St. Paul, Minn.) and or DMSO in RPMI 1640 culture medium with 10% FBS and 1% penicillin-streptomycin (Invitrogen, Carlsbad, Calif.). After 16-20 h, adherent cells were scraped, suspended in RPMI 1640 culture media and plated onto 96-well tissue culture plates for bacterial phagocytosis and clearance assays. […] For MARCO antibody-depletion, alveolar macrophages were incubated with human anti-MARCO antibody (1 μg/ml; (Hycult, Uden, The Netherlands) for 4 hours prior to bacterial challenge.
(§2) GAPDH was used for normalization.

MARCO = tested on: MARCO
Description: as §1, §2

[2] = tested on: CD80/86, MHC-11, CD14 and CD206; settings: FACS
Description: To examine the contribution of MARCO in mediating bacterial phagocytosis by alveolar macrophages following sulforaphane treatment, an antibody-depletion approach was employed. The specificity of anti-MARCO antibody was validated by immunoblot analysis (FIG. 12). […] To assess the effect of sulforaphane on the phenotype of macrophages, CD80/86, MHC-11, CD14 and CD206 were analyzed by FACS.

Nrf2 [3] = settings: COPD alveolar macrophages, 5 μM for 16 h
Description: For inducing corticosteroid resistance, PMs were exposed to cigarette smoke condensate (CSC, 100 μg/ml; Murty Pharmaceuticals, Lexington, Ky.) for 16 h. Exposure to S-nitrosoglutathione (GSNO, 10 μM) was limited to 4 h. […] For assessing corticosteroid responsiveness, macrophages were incubated with dexamethasone (1 μM, Sigma) for 1 h followed by LPS (100 ng/ml, Sigma) for additional 4 h.
All immunoblots were performed by using protocols as described previously (Barnes, P. J., N Engl J Med 343, 269-280 (2000)). Rabbit anti-HDAC2 antibody from Santa Cruz Biotechnology (Santa Cruz, Calif.) was used at 1:500 dilutions. Rabbit anti-5-nitroso-cysteine antibody from Alpha diagnostics was used at 1:500 dilutions. Rabbit anti-nitro-tyrosine antibody from Cell Signaling Technology, was used at 1:250 dilution. Rabbit anti-ubiquitin antibody from Santa Cruz Biotechnology (Santa Cruz, Calif.) was used at 1:1000 dilutions. Rabbit anti-GR antibody from Santa Cruz Biotechnology (Santa Cruz, Calif.) was used at a dilution of 1:1000. Rabbit anti-MMP9 antibody from Sigma Aldrich was used at 1:500 dilutions. Rabbit anti-acetyl-lysine antibody from Abcam was used at 1:750 dilutions. Rabbit anti-lamin-B1 from Santa Cruz Biotechnology (Santa Cruz, Calif.) was used at 1:1000 dilutions as a loading control. The Image J program was used for densitometry analyses.
Total RNA was extracted from the cells by lysis and specific binding to a silica membrance (Qiagen RNeasy kit, Qiagen, Valencia, Calif.), and qRT-PCR was performed by using primers and probe sets for human IL-8, NQO1, GCLM, and iNOS (Assay-on-Demand, Applied Biosystems, Foster City, Calif.). A real-time fluorescent PCR system (ABI 7000 Taqman system, Applied Biosystems) was used to perform these assays. β-actin was used as the normalization control.

HDAC2 = assay: Posttranslational modification of HDAC2 in alveolar macrophages (immunoblot, DAN, biotin-switch); assay type: cell-based, human
Description: S-nitrosylation of proteins was analyzed by anti-SNO antibody, biotin switch assay, and or 2,3-diaminonapthalene (DAN) assay. […] Detail methodology is described in supplementary data.
Macrophage cell or lung tissue extracts were prepared by using 100 μL of immunoprecipitation buffer (50 mM Tris-HCl, pH 8.0, 150 mM NaCl, 1.0% Triton X-100, 0.5% NP-40, 0.1% SDS, 0.5% deoxycholate, and complete protease inhibitor cocktail) from Roche (Morristown, N.J.). The lysis mixture was incubated on ice for 15 minutes and microcentrifuged for 10 minutes at 4° C. Extracts were precleared with 20 μL protein A/G sepharose beads (a 50:50 mix) from Thermo scientific (Rockford, Ill.) and 2 μg of normal IgG. After microcentrifugation, 20 μL of protein A/G sepharose conjugated with 5 μg of antibody was used to precipitate HDAC2 (Santa Cruz Biotechnology, Santa Cruz, Calif.) overnight at 4° C. with rotation. The immune complexes were pelleted with gentle centrifugation, washed twice with 1 mL of immunoprecipitation buffer, and divided equally for the final wash for the activity assay and immunoblotting. For the HDAC assay, immunoprecipitates were resuspended in the activity assay buffer (50 mM TrisHCl, pH 8.0; 10% glycerol; 1 mM dithiothreitol; 0.1 mM EDTA, complete protease inhibitor cocktail). For HDAC2-specific western blotting, immune complexes were washed three times with the immunoprecipitation buffer and finally resuspended in Laemmli buffer for the SDS-PAGE.
For HDAC2-specific nitrosylation detection, cells were lysed in buffer (50 mM Tris-HCl, pH 8.0, 150 mM NaCl, 1% Nonidet P-40, 0.5% deoxycholic acid, 0.1% SDS). […] The pellets were resuspended in 500 μL of PBS.
This assay was performed in the dark.
The Image J program was used for densitometry analyses.

[4] = GSNO-exposed alveolar macrophages
[5] = nuclear immunopurified HDAC2, compared with vehicle

## C[S+]([O-])CCCCN=C=S (centres unmarked) [sulforaphane]
Nrf2 [1]
  Nrf2-regulated target genes (NQO1 & GPX2) mRNA: upregulation of Nrf2-regulated targets genes
Nrf2 [1]; flow cytometry, vs vehicle
  Nrf2 protein levels: elevated levels of Nrf2 protein
MARCO; COPD alveolar macrophages, flow cytometry, compared to vehicle, p<0.001
  surface expression of MARCO protein: 2- to 5 fold
MARCO; alveolar macrophages transfected with Nrf2-siRNA, compared to control ssRNA
  expression of MARCO mRNA: failed to upregulate the expression of MARCO mRNA
[2]
  expression of other markers (MHC-11, CD14): no significant difference
  expression of receptors CD80/86 and CD206: Moderate suppression
Nrf2 [3]
  GSH biosynthesizing enzymes (GCLC, GCLM): significantly elevated
  Nrf2-regulated antioxidant genes (NQO1, HO-1): significantly elevated
  Nrf2 nuclear protein levels: significantly elevated
HDAC2; 2,3-diaminonaphthalene and biotin-switch assays
  S-nitrosylation of HDAC2: reduced
HDAC2; [4]
  levels of NO-Tyr HDAC2: decreased the levels of both NO-Tyr HDAC2 and SNO-HDAC2
  levels of SNO-HDAC2: decreased the levels of both NO-Tyr HDAC2 and SNO-HDAC2
HDAC2; GSNO-exposed alveolar macrophages in the presence of buthionine sulfoximine
  ability to reduce the levels of SNOHDAC2 protein: ablated
HDAC2; anti-SNO antibody immunoblot
  S-nitrosylation of HDAC2 (SNO-HDAC2): significantly reduced
HDAC2; immunopurified HDAC2 from alveolar macrophages, compared with vehicle
  tyrosine nitration of HDAC2 (nitrotyrosine-HDAC2): Significant reductions
HDAC2; [5]
  serine phosphorylation of HDAC2: Significant reductions
  ubiquitination of HDAC2: Significant reductions
